Experimental data from patent US20170240556A1, “BIFLUORODIOXALANE-AMINO-BENZIMIDAZOLE KINASE INHIBITORS FOR THE TREATMENT OF CANCER, AUTOIMMUNEINFLAMMATION AND CNS DISORDERS” (4SC DISCOVERY GMBH, priority 2012, published 2017).

Columns and labels:
Experiment in all cases: Proliferation Assay
Type in all cases: cell-based
[1] = system: SKHEP1 (liver); settings: Homo sapiens, SK-HEP1, 72 h, read-out: IC50 inhibition of cell growth
Description: (§1) For the determination of the inhibitory capacity of compounds of the present invention (in the following: “test compound(s)”) on cell growth, cancer cells were seeded into microtitre plates, treated with different concentrations of test compound or left untreated, and after 72 h the protein content was determined as an equivalent for the cell number.
(§2) Test compounds were dissolved in 100% DMSO and predilutions in cell culture medium were prepared with a final concentration of 0.1% DMSO in medium. The cell culture medium for dilution of the test compounds, consecutive culturing of cell lines and usage during the assay was a cell line specific medium as recommended by the cell line supplier and identical for all three applications mentioned above. After a 24-hour pre-growth period of the seeded cancer cells, the test compound containing media or medium containing 0.1% DMSO as control was added to the cells. The cells were allowed to grow at 37° C. for 72 hours. In addition, all experiments contained a few plates with cells that were processed for measurement immediately after the 24 hours recovery period. These plates contained information about the cell number that existed before treatment, at time zero, and served to calculate the cytotoxicity and/or growth inhibitory effects.
(§3) After treatment, cells were precipitated by addition of 10% TCA (trichloracetic acid). Prior to fixation, the media was aspirated. After an hour of incubation at 4° C. the plates were washed twice with 400 μl of deionized water. Cells were then stained with 100 μl of a 0.08% wt/v SRB (sulforhodamine). The plates were allowed to sit for at least 30 min and washed six times with 1% acetic acid to remove unbound staining agent. The plates were left to dry at room temperature and bound SRB was solubilized with 100 μl of 10 mM Tris base. Measurement of optical density was performed at 560 nm on a Victor 2 plate reader (Perkin Elmer, Germany).
(§4) One common way to express the effect of an anticancer agent is to measure cell viability and survival in the presence of the test agent as % Treated/Control×100. The relationship between the viability and dose is called a dose response curve. Those dose response curves were determined by using algorithms developed by Oncolead GmbH & Co. KG, Munich, Germany, that can be compared to commercial applications, e.g. XLfit™ (ID Business Solutions Ltd., Guildford, UK) algorithm “205”.

[2] = system: T24 (bladder); settings: 72 h, read-out: IC50 inhibition of cell growth
Description: as §1, §2, §3, §4

[3] = system: CASKI (cervix); settings: Homo sapiens, Ca-Ski, 72 h, read-out: IC50 inhibition of cell growth
Description: as §1, §2, §3, §4

[4] = system: HELA (cervix); settings: Homo sapiens, 72 h, read-out: IC50 inhibition of cell growth
Description: as §1, §2, §3, §4

[5] = system: HS578T (breast); settings: Homo sapiens, Hs-578T, 72 h, read-out: IC50 inhibition of cell growth
Description: as §1, §2, §3, §4

[6] = system: A431 (skin); settings: Homo sapiens, A-431, 72 h, read-out: IC50 inhibition of cell growth
Description: as §1, §2, §3, §4

[7] = system: TE671 (muscle); settings: Homo sapiens, TE-671, 72 h, read-out: IC50 inhibition of cell growth
Description: as §1, §2, §3, §4

[8] = system: HT1080 (connective tissue); settings: Homo sapiens, HT-1080, 72 h, read-out: IC50 inhibition of cell growth
Description: as §1, §2, §3, §4

[9] = system: COLO205 (colon); settings: Homo sapiens, COLO 205, 72 h, read-out: IC50 inhibition of cell growth
Description: as §1, §2, §3, §4

[10] = system: SF268 (brain); settings: Homo sapiens, SF-268, 72 h, read-out: IC50 inhibition of cell growth
Description: as §1, §2, §3, §4

[11] = system: SKMEL28 (skin); settings: Homo sapiens, SK-MEL-28, 72 h, read-out: IC50 inhibition of cell growth
Description: as §1, §2, §3, §4

[12] = system: DLD1 (colon); settings: Homo sapiens, DLD-1, 72 h, read-out: IC50 inhibition of cell growth
Description: as §1, §2, §3, §4

[13] = system: JIMT1 (breast); settings: Homo sapiens, JIMT-1, 72 h, read-out: IC50 inhibition of cell growth
Description: as §1, §2, §3, §4

[14] = system: 5637 (bladder); settings: 72 h, read-out: IC50 inhibition of cell growth
Description: as §1, §2, §3, §4

[15] = system: BT20 (breast); settings: Homo sapiens, BT-20, 72 h, read-out: IC50 inhibition of cell growth
Description: as §1, §2, §3, §4

[16] = system: RDES (bone); settings: RD-ES, 72 h, read-out: IC50 inhibition of cell growth
Description: as §1, §2, §3, §4

[17] = system: MDAMB436 (breast); settings: Homo sapiens, MDA-MB-436, 72 h, read-out: IC50 inhibition of cell growth
Description: as §1, §2, §3, §4

[18] = system: EFO21 (ovary); settings: Homo sapiens, EFO-21, 72 h, read-out: IC50 inhibition of cell growth
Description: as §1, §2, §3, §4

[19] = system: SNB75 (brain); settings: Homo sapiens, SNB-75, 72 h, read-out: IC50 inhibition of cell growth
Description: as §1, §2, §3, §4

[20] = system: U87MG (brain); settings: Homo sapiens, U-87 MG, 72 h, read-out: IC50 inhibition of cell growth
Description: as §1, §2, §3, §4

[21] = system: HEK293 (kidney); settings: Homo sapiens, 72 h, read-out: IC50 inhibition of cell growth
Description: as §1, §2, §3, §4

[22] = system: DU145 (prostate); settings: Homo sapiens, DU-145, 72 h, read-out: IC50 inhibition of cell growth
Description: as §1, §2, §3, §4

[23] = system: IMR90 (lung); settings: Homo sapiens, IMR-90, 72 h, read-out: IC50 inhibition of cell growth
Description: as §1, §2, §3, §4

[24] = system: ASPC1 (pancreas); settings: Homo sapiens, 72 h, read-out: IC50 inhibition of cell growth
Description: as §1, §2, §3, §4

[25] = system: 22RV1 (prostate); settings: Homo sapiens, 72 h, read-out: IC50 inhibition of cell growth
Description: as §1, §2, §3, §4

IC50 [1]: ≤ 1 µM
IC50 [2]: ≤ 1 µM
IC50 [4]: ≤ 1 µM
IC50 [6]: ≤ 1 µM
IC50 [8]: ≤ 1 µM
IC50 [9]: ≤ 1 µM
IC50 [11]: ≤ 1 µM
IC50 [12]: ≤ 1 µM
IC50 [15]: ≤ 1 µM
IC50 [17]: ≤ 1 µM
IC50 [20]: ≤ 1 µM
IC50 [22]: ≤ 1 µM
IC50 [24]: ≤ 1 µM
IC50 [25]: ≤ 1 µM
SMILES: COc1cccc(C(=O)Nc2nc3cc4c(cc3[nH]2)OC(F)(F)O4)c1 [Compound 56, N-(2,2-difluoro-5H-[1,3]dioxolo[4′,5′:4,5]benzo[1,2-d]imidazol-6-yl)-3-methoxybenzamide]
IC50 [3]: ≤ 1 µM
IC50 [5]: ≤ 1 µM
IC50 [7]: ≤ 1 µM
IC50 [10]: ≤ 1 µM
IC50 [13]: ≤ 1 µM
IC50 [14]: ≤ 1 µM
IC50 [16]: ≤ 1 µM
IC50 [18]: ≤ 1 µM
IC50 [19]: ≤ 1 µM
IC50 [21]: ≤ 1 µM
IC50 [23]: ≤ 1 µM
